#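 1) Cells in 96-well plates. 2) Compound, 48 h, 5 concentrations. 3) Linear interpolation between surrounding doses. 4) Unreached endpoint = highest concentration. TGI: concentration producing complete growth inhibition.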
# How the values were obtained:
# Test in all cases: growth of human tumour cells (NCI), 48 h
# HOP-92 NSCLC = test system: HOP-92 NSCLC
# SN12C renal = test system: SN12C renal
# SK-OV-3 ovarian = test system: SK-OV-3 ovarian
# NCI-H23 lung = test system: NCI-H23 lung
# MOLT-4 leukemia = test system: MOLT-4 leukemia
# KM12 colon = test system: KM12 colon
# A549 NSCLC = test system: A549 NSCLC
# SF-539 CNS = test system: SF-539 CNS
# HCT-116 colon = test system: HCT-116 colon
# HCT-15 colon = test system: HCT-15 colon
# SF-268 CNS = test system: SF-268 CNS
# IGROV1 ovarian = test system: IGROV1 ovarian
# OVCAR-3 ovarian = test system: OVCAR-3 ovarian
# EKVX NSCLC = test system: EKVX NSCLC
# SNB-19 CNS = test system: SNB-19 CNS
Structure (SMILES),TGI (HOP-92 NSCLC) [µM],TGI (SN12C renal) [µM],TGI (SK-OV-3 ovarian) [µM],TGI (NCI-H23 lung) [µM],TGI (MOLT-4 leukemia) [µM],TGI (KM12 colon) [µM],TGI (A549 NSCLC) [µM],TGI (SF-539 CNS) [µM],TGI (HCT-116 colon) [µM],TGI (HCT-15 colon) [µM],TGI (SF-268 CNS) [µM],TGI (IGROV1 ovarian) [µM],TGI (OVCAR-3 ovarian) [µM],TGI (EKVX NSCLC) [µM],TGI (SNB-19 CNS) [µM]
N#CC(NNC(=O)c1ccccc1O)c1ccccc1 (stereo unspecified),> 100,> 100,> 100,> 100,> 100,> 100,> 100,> 100,> 100,> 100,> 100,> 100,85.9,–,–
COc1ccc2nc3ccc(OC)cc3c(SCC3CO3)c2c1 (stereo unspecified),–,27.4,> 100,35.4,–,34.4,> 100,23.7,22.7,33.6,31.6,–,28.5,34.2,80.4
COc1cc(C2c3cc4c(cc3OC(NCc3ccccc3)C2C)OCO4)cc(OC)c1OC (stereo unspecified),20.3,> 52.1,> 35.3,> 48.2,31.8,5.69,> 94,0.817,–,> 44.4,> 36.8,> 36.5,3.1,> 100,> 100
COc1cc(C2(O)c3ccccc3C3=NCCN32)cc(OC)c1OC (stereo unspecified),> 100,> 100,> 100,> 100,> 100,> 100,> 100,–,> 100,> 100,> 100,–,> 100,–,> 100
O=C1NC(=NC2CCCCC2)C2(CCN(CCCC3(c4ccc(F)cc4)OCCO3)CC2)N1c1ccccc1,–,37.5,42.7,34.3,36.7,38.9,46.3,30.7,24.7,36.9,42.2,–,25.6,36.2,35
O=S1c2ccccc2SCSc2ccccc21,> 100,> 100,> 100,> 100,> 100,> 100,> 100,> 100,> 100,> 100,> 100,–,> 100,–,> 100
CC(=O)N1N=C(c2c(O)ccc3ccccc23)CC1c1ccc(Cl)cc1 (stereo unspecified),39.5,39.3,> 100,46.5,31,29.9,> 100,37.4,28.4,> 100,> 100,63.9,32.1,–,–
CC1SC(=O)SC1C (stereo unspecified),–,> 100,> 100,–,> 100,> 100,> 100,> 100,> 100,> 100,> 100,> 100,–,> 100,> 100
O=C(NCC(C(=O)OCc1ccccc1)C(=O)OCc1ccccc1)OCc1ccccc1,> 100,> 100,> 100,> 100,> 100,> 100,> 100,> 100,–,> 100,> 100,> 100,> 100,> 100,> 100
O=C(/C=C(\O)c1ccc(Cl)cc1)C(=O)NN=C(c1ccccc1)c1ccccc1,–,> 100,> 100,> 100,95.1,> 100,> 100,> 100,> 100,> 100,> 100,> 100,> 100,> 100,> 100
COc1ccc([C@H](NC(=O)c2ccccc2)[C@@H](O)C(=O)O[C@H]2C[C@@]3(O)C(OC(=O)c4ccccc4)C4[C@](C)(C(=O)[C@H](OC(C)=O)C(=C2C)C3(C)C)[C@@H](O)C[C@H]2OC[C@@]42OC(C)=O)cc1 (stereo partly specified),> 10,> 10,–,> 10,> 5.11,–,> 10,0.00758,–,> 8.98,> 10,> 10,–,> 10,> 10
Cc1ccc(CCCCCOc2ccc(C3=NCCO3)cc2)s1,–,> 100,> 100,> 100,> 100,> 100,> 100,–,> 100,> 100,> 100,> 100,> 100,> 100,> 100
Cc1nn(C(=O)Cc2ccccc2)c2c1C(c1ccccc1[N+](=O)[O-])SC(N)=N2 (stereo unspecified),–,> 100,> 100,> 100,> 100,> 100,> 100,> 100,> 100,> 100,> 100,> 100,–,> 100,> 100
CSC(=S)OC1C(CO[Si](C)(C)C(C)(C)C)OC2OC(C)(C)OC21 (stereo unspecified),–,37.1,41.5,44.3,30.5,30.4,78.6,43.5,36.6,35.3,45.9,53.6,31.3,60.1,47

# Reference: PubChem BioAssay (NCI)
